Data taken from publication PMC10342533, “Novel Tetrazole Derivatives Targeting Tubulin Endowed with Antiproliferative Activity against Glioblastoma Cells” (International Journal of Molecular Sciences, 2023).
In brackets after ≈: the same amount, converted by molar mass.

What was measured:
[1] = test system: T98G (temozolomide resistant glioblastoma); experiment: Cell growth inhibition, MTT assay, T98G; assay type: cell-based; conditions: Homo sapiens
Experimental: (§1) The ability of the synthesized compounds to inhibit the cell proliferation of human cancer cell lines was assayed by measuring cell viability through the use of the MTT method 72 h after treatment. For this purpose, representative cell lines of the most frequent kinds of cancer were selected, including the following: HeLa (cervix epithelioid carcinoma), MCF7 (breast adenocarcinoma), U87 MG (glioblastoma), T98G (temozolomide resistant glioblastoma), HepG2 (hepatocellular carcinoma), HCT8 (colorectal carcinoma), and HT-29 (colon adenocarcinoma).
(§2) The cell lines were obtained from ATTC (Manassas, VA, USA). […] The cells were periodically tested for Mycoplasma infection by using a MycoAlert kit (Lonza, Norwest, Australia), and only Mycoplasma-free cells were used in the experiments.
(§3) Then, every compound was added (10 µL/well) to a final concentration of 10 µM. Untreated cells were used as negative controls. The antiproliferative activity of compounds was measured 72 h after drug exposure through the MTT assay. […] For this purpose, compounds were used at different concentrations, ranging from 10^−10 to 10^−2 M. Measurements were performed in triplicate, and each experiment was repeated three times. The IC50 values were determined using Origin software (version 9.6, OriginLab, Washington, DC, USA).

[2] = test system: HeLa (cervix epithelioid carcinoma); experiment: Cell growth inhibition, MTT assay, HeLa; assay type: cell-based; conditions: Homo sapiens
Experimental: as §1, §2, §3

[3] = test system: HCT8 (colorectal carcinoma); experiment: Cell growth inhibition, MTT assay, HCT8; assay type: cell-based; conditions: Homo sapiens
Experimental: as §1, §2, §3

[4] = test system: U87 MG (glioblastoma); experiment: Cell growth inhibition, MTT assay, U87 MG; assay type: cell-based; conditions: Homo sapiens, U-87 MG
Experimental: as §1, §2, §3

[5] = Aqueous solubility, shake-flask method, phosphate buffer pH 7.4; assay type: physicochemical; conditions: thermodynamic from solid, phosphate buffer pH 7.4, shake-flask, mean ± SD of three experiments
Experimental: The aqueous solubility of tetrazole derivatives was determined by the shaking flask methodology in phosphate buffer at pH 7.4, microfiltration, and quantification of the saturated solutions via UV spectroscopy. […] The introduction of polar groups on the 3-indole position was favorable since the most soluble compounds were the oximes 16–19 (38–53 µg/mL), followed by the carbaldehyde series 12–15 (33–45 µg/mL), and the carbonitrile derivatives (25–40 µg/mL), whereas the unsubstituted indoles 8–11 were the least soluble series (19–35 µg/mL).
The aqueous solubility of the compounds was determined using the saturation shake-flask method. First, calibration lines at the maximum wavelength of absorbance were determined for each compound. Then, 5 mg of each compound was suspended in 500 µL of pH 7.4 buffer, and the resulting mixture was shaken for 72 h at room temperature and filtrated over a […] filter to remove the insoluble fraction. The concentration of the compound in the supernatant (saturated solution) was determined by measuring UV absorbance at the maximum wavelength of absorbance and interpolation in the calibration line. A Helios Alfa Spectrophotometer was used for the UV measurements. The aqueous solubility values are given as the average of three independent experiments.

[6] = test system: HepG2 (hepatocellular carcinoma); experiment: Cell growth inhibition, MTT assay, HepG2; assay type: cell-based; conditions: Homo sapiens
Experimental: as §1, §2, §3

[7] = test system: HT-29 (colon adenocarcinoma); experiment: Cell growth inhibition, MTT assay, HT-29, without or with verapamil; assay type: cell-based, human
Experimental: as §1
Multidrug resistance (MDR) proteins, especially P-glycoprotein (P-gp), are often involved in resistance mechanisms affecting tubulin-binding drugs that are frequently related to the failure of cancer therapies. […] These pumps are also part of the blood–brain barrier.
as §2, §3

[8] = test system: MCF7 (breast adenocarcinoma); experiment: Cell growth inhibition, MTT assay, MCF7; assay type: cell-based; conditions: Homo sapiens
Experimental: as §1, §2, §3

[9] = test system: HEK-293 (embryonic kidney); experiment: Cell growth inhibition, MTT assay, non-tumor HEK-293; assay type: cell-based; conditions: Homo sapiens
Experimental: The ability of the synthesized compounds to inhibit the cell proliferation of human cancer cell lines was assayed by measuring cell viability through the use of the MTT method 72 h after treatment. For this purpose, representative cell lines of the most frequent kinds of cancer were selected, including the following: HeLa (cervix epithelioid carcinoma), MCF7 (breast adenocarcinoma), U87 MG (glioblastoma), T98G (temozolomide resistant glioblastoma), HepG2 (hepatocellular carcinoma), HCT8 (colorectal carcinoma), and HT-29 (colon adenocarcinoma). […] The compounds were also tested against the non-tumor HEK-293 cells to study their selectivity toward cancer cells. […] The cell lines were obtained from ATTC (Manassas, VA, USA). […] The cells were periodically tested for Mycoplasma infection by using a MycoAlert kit (Lonza, Norwest, Australia), and only Mycoplasma-free cells were used in the experiments. […] Louis, MO, USA), which was dissolved in PBS at 5 mg/mL in accordance with the manufacturer's instructions. […] Untreated cells were used as negative controls. The antiproliferative activity of compounds was measured 72 h after drug exposure through the MTT assay. […] For this purpose, compounds were used at different concentrations, ranging from 10^-10 to 10^-2 M. Measurements were performed in triplicate, and each experiment was repeated three times. The IC50 values were determined using Origin software (version 9.6, OriginLab, Washington, DC, USA).

[10] = target: T1, microtubular protein isolated from calf brains (bovine brain tubulin) (Bos taurus, UniProt P81947+Q6B856); experiment: Tubulin polymerization inhibition (TPI); assay type: biochemical; conditions: in vitro tubulin polymerization, mean ± SD
T1 construct: from tissue; host or cells: calf (bovine) brain
T1 sequence (Q6B856 whole entry): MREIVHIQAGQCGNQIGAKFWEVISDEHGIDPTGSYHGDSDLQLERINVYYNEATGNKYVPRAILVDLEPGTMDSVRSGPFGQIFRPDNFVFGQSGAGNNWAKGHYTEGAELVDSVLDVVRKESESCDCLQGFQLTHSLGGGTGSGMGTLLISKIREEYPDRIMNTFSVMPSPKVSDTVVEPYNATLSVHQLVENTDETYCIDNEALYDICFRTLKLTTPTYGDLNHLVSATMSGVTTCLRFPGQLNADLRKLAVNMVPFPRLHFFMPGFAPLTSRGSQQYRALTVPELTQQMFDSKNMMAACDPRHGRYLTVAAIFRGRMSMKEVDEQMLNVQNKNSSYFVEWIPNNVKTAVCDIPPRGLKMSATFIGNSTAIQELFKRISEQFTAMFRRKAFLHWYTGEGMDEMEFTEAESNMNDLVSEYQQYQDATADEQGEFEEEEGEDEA
T1 sequence (P81947 whole entry): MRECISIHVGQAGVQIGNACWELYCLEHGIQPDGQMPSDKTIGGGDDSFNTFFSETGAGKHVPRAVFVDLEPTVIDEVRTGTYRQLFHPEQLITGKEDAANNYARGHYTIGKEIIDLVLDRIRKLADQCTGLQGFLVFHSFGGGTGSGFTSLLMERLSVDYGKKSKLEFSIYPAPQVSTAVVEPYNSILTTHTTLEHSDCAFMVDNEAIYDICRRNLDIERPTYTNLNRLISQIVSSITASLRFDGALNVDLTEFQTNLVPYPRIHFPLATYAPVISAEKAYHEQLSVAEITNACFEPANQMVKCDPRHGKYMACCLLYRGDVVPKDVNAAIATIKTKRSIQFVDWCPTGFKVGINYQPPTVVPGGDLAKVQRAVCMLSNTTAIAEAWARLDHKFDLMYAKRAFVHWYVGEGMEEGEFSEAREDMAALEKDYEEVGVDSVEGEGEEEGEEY
Experimental: We evaluated the capacity of the new synthesized compounds to inhibit the polymerization of microtubular protein isolated from calf brains. The assays were performed by taking absorbance measurements to quantify the amount of polymer mass formed in the presence (or absence; negative controls) of the compounds.
Bovine brain tubulin was isolated as previously described by following a modified version of the Shelanski method. The protein was stored at −80 °C, and its concentration was determined by employing the Bradford method before each use. […] Tubulin polymerization, caused when heating the samples, was accompanied by an increase in the absorbance (at 450 nm) of the sample that was monitored by using a Helios α spectrophotometer. […] Measurements were performed in triplicate in two independent experiments using microtubular proteins from different preparations.

[11] = HCT-8, 72 h after drug exposure
[12] = Homo sapiens, HT-29, 72 h after drug exposure
[13] = Homo sapiens, HT-29, mean ± SD, Table S1
[14] = mean ± SD, Table S1, in the presence of verapamil (10 µM)
[15] = HEK293, 72 h, non-tumorigenic cell line
[16] = HEK293, heading: IC50 HEK-293, mean ± SD, Table S1, non-tumorigenic cell line

| SMILES | melting point [°C] | IC50 ([1]; 72 h, 72 h after drug exposure) [nM] | IC50 ([1]; mean ± SD, Table S1) [nM] | IC50 ([2]; 72 h after drug exposure) [nM] | IC50 ([2]; mean ± SD, Table S1) [nM] | IC50 [3, 11] [nM] | IC50 ([3]; HCT-8, mean ± SD, Table S1) [nM] | IC50 ([4]; 72 h after drug exposure) [nM] | IC50 ([4]; mean ± SD, Table S1) [nM] | solubility at 72 h [5] [µg/mL] | IC50 ([6]; 72 h after drug exposure) [nM] | IC50 ([6]; mean ± SD, Table S1) [nM] | IC50 [7, 12] [nM] | IC50 [7, 13] [nM] | IC50 [7, 14] [nM] | IC50 ([8]; 72 h after drug exposure) [nM] | IC50 ([8]; mean ± SD, Table S1) [nM] | IC50 [9, 15] [µM] | IC50 [10] [µM] | IC50 [9, 16] [µM] |
| --- | --- | --- | --- | --- | --- | --- | --- | --- | --- | --- | --- | --- | --- | --- | --- | --- | --- | --- | --- | --- |
| COc1cc(-c2nnnn2-c2ccc3c(c2)c(C=O)cn3C)cc(Cl)n1 [Compound 13, 5-(5-(2-chloro-6-methoxypyridin-4-yl)-1H-tetrazol-1-yl)-1-methyl-1H-indole-3-carbaldehyde] | 214 to 215 | 54 | 54.1 ± 0.3 | 57 | 57.5 ± 0.3 | 50 | 50.1 ± 0.4 | 55 | 55.4 ± 0.4 | 45.3 ± 0.4 (≈ 123 µM) | 55 | 55.3 ± 0.2 | 64 | 64.2 ± 0.4 | 67.3 ± 0.6 | 65 | 65.4 ± 0.5 | 3.72 | 2.8 ± 0.2 | – |
| COc1cc(-c2nnnn2-c2ccc3c(c2)c(C=NO)cn3C)cc(Cl)n1 [Compound 17, 5-(5-(2-chloro-6-methoxypyridin-4-yl)-1H-tetrazol-1-yl)-1-methyl-1H-indole-3-carbaldehyde oxime] | – | 181 | 181.4 ± 1.5 | 220 | 220.2 ± 1.9 | 227 | – | 155 | 155.2 ± 1.3 | 53 ± 0.3 (≈ 138 µM) | 229 | – | 238 | – | 230 ± 2.5 | 215 | – | 7.25 | 3.8 ± 0.1 | – |
| CSc1cc(-c2nnnn2-c2ccc3c(c2)c(C=NO)cn3C)cc(SC)n1 [Compound 19, 5-(5-(2,6-bis(methylsulfanyl)pyridin-4-yl)-1H-tetrazol-1-yl)-1-methyl-1H-indole-3-carbaldehyde oxime] | – | 294 | 294 ± 3 | 307 | 307.1 ± 2.8 | 333 | 333.2 ± 2.7 | 275 | 275 ± 2.8 | 47.8 ± 0.6 (≈ 116 µM) | 341 | 341.4 ± 3.3 | 355 | 355.5 ± 2.3 | 359 ± 4.1 | 339 | 339.5 ± 2.4 | 8.31 | 4.3 ± 0.2 | – |
| CSc1cc(-c2nnnn2-c2ccc3c(c2)c(C#N)cn3C)cc(Cl)n1 [Compound 22, 5-(5-(2-chloro-6-(methylsulfanyl)pyridin-4-yl)-1H-tetrazol-1-yl)-1-methyl-1H-indole-3-carbonitrile] | – | 359 | 359 ± 3.9 | 341 | 341.2 ± 2.8 | 335 | 335.3 ± 3.3 | 312 | 312.3 ± 2.6 | 31.2 ± 0.3 (≈ 81.7 µM) | 327 | 327.3 ± 2.8 | 355 | 355 ± 3.9 | 357 ± 3.9 | 329 | – | > 10 | 4.6 ± 0.2 | > 10 |
| CSc1cc(-c2nnnn2-c2ccc3c(ccn3C)c2)cc(SC)n1 [Compound 11, 5-(5-(2,6-bis(methylsulfanyl)pyridin-4-yl)-1H-tetrazol-1-yl)-1-methyl-1H-indole] | 160 to 161 | 219 | 219 ± 2.2 | 233 | 233.1 ± 1.4 | 236 | – | 209 | 209.3 ± 1.9 | 30.7 ± 0.3 (≈ 83.3 µM) | 227 | 227 ± 2.5 | 255 | 255 ± 2.6 | 257 ± 3 | 240 | 240.2 ± 2 | 6.82 | 3.8 ± 0.1 | – |
| CSc1cc(-c2nnnn2-c2ccc3c(c2)c(C=O)cn3C)cc(SC)n1 [Compound 15, 5-(5-(2,6-bis(methylsulfanyl)pyridin-4-yl)-1H-tetrazol-1-yl)-1-methyl-1H-indole-3-carbaldehyde] | 207 to 208 | 122 | 122.5 ± 1.2 | 144 | 144 ± 1.7 | 141 | 141.3 ± 1 | 115 | 115 ± 1.4 | 41.2 ± 0.4 (≈ 104 µM) | 137 | 137 ± 1.5 | 244 | 244.1 ± 1.8 | 242 ± 2.5 | 130 | 130.1 ± 1.1 | 6.48 | 3.5 ± 0.2 | – |
| Cn1cc(C#N)c2cc(-n3nnnc3-c3cc(Cl)nc(Cl)c3)ccc21 [Compound 20, 5-(5-(2,6-dichloropyridin-4-yl)-1H-tetrazol-1-yl)-1-methyl-1H-indole-3-carbonitrile] | – | 555 | 555.4 ± 4.2 | 625 | 625.4 ± 4.2 | 628 | – | 522 | 522.1 ± 3.1 | 25.3 ± 0.1 (≈ 68.3 µM) | 634 | 634.5 ± 5.6 | 679 | 679.4 ± 4 | 682.3 ± 6.3 | 631 | 631.4 ± 4.9 | > 10 | 6.2 ± 0.3 | > 10 |
